Target: T1, Stimulator of interferon genes (STING) (Homo sapiens, UniProt Q86WV6)
T1 construct: gene STING1
Assay: DARTS in Jurkat and Hut102 cell lysates ([…]); weaker than NeoL
Type: cell-based

T1 sequence (Q86WV6 whole entry): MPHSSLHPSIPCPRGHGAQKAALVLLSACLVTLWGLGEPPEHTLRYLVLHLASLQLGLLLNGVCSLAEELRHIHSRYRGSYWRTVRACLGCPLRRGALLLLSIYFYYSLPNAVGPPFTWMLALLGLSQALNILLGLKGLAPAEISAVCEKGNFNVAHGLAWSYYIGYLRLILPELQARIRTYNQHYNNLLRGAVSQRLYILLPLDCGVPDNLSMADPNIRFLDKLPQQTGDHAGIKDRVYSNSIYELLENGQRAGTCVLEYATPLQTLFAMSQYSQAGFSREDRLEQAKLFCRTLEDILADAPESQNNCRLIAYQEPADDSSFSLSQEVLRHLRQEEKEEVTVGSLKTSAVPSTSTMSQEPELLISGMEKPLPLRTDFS

Q: Which “DARTS in Jurkat and Hut102 cell lysates (80 μmol/L); weaker than NeoL” value does the source give for `COc1ccc(C[C@@H]2c3cc(Oc4cc(C[C@@H]5c6cc(O)c(OC)cc6CCN5C)ccc4O)c(OC)cc3CCN2C)cc1` [IsoL, isoliensinine] here?
A: incubation with NeoL and IsoL led to increased STING in the Jurkat and Hut102 cell lysates

Source: PMC13485499, “Neoliensinine promotes lysosomal cell death in T cell malignancies via a novel STING-TUBA1B pathway” (Genes & Diseases, 2025)
